Tested on: SEM cells
Experiment: cell viability relative to DMSO control; higher = less cytotoxic
Conditions: 48 h
Procedure, shortened: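 Viability values are per-plate percentages of DMSO wells, with background from cell-free wells. Library compounds in DMSO were pin-dosed, in an 11-point threefold series from 47 μM to 0.79 nM, onto NOMO1 or SEM (500 cells/well) or P12-Ichikawa (1000 cells/well) leukemia cells in 1536-well plates (5 μl). Those cells had been adapted for at least four passages in each medium, and CellTiter-Glo One luminescence was read after 48 h at 37°C.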

[1] = HPLM + 10% dialyzed FBS, 0.000781 µM
[2] = HPLM + 10% dialyzed FBS, 0.00234 µM
[3] = HPLM + 10% dialyzed FBS, 0.00702 µM
[4] = HPLM + 10% dialyzed FBS, 0.0211 µM
[5] = HPLM + 10% dialyzed FBS, 0.0632 µM
[6] = HPLM + 10% dialyzed FBS, 0.19 µM
[7] = HPLM + 10% dialyzed FBS, 0.569 µM
[8] = HPLM + 10% dialyzed FBS, 1.71 µM
[9] = HPLM + 10% dialyzed FBS, 5.12 µM
[10] = HPLM + 10% dialyzed FBS, 15.4 µM
[11] = HPLM + 10% dialyzed FBS, 46.1 µM
[12] = RPMI 5 mM glucose + 10% FBS, 0.000781 µM
[13] = RPMI 5 mM glucose + 10% FBS, 0.00234 µM
[14] = RPMI 5 mM glucose + 10% FBS, 0.00702 µM
[15] = RPMI 5 mM glucose + 10% FBS, 0.0211 µM
[16] = RPMI 5 mM glucose + 10% FBS, 0.0632 µM
[17] = RPMI 5 mM glucose + 10% FBS, 0.19 µM
[18] = RPMI 5 mM glucose + 10% FBS, 0.569 µM
[19] = RPMI 5 mM glucose + 10% FBS, 1.71 µM
[20] = RPMI 5 mM glucose + 10% FBS, 5.12 µM
[21] = RPMI 5 mM glucose + 10% FBS, 15.4 µM
[22] = RPMI 5 mM glucose + 10% FBS, 46.1 µM
[23] = RPMI 5 mM glucose + 10% dialyzed FBS, 0.000781 µM
[24] = RPMI 5 mM glucose + 10% dialyzed FBS, 0.00234 µM
[25] = RPMI 5 mM glucose + 10% dialyzed FBS, 0.00702 µM
[26] = RPMI 5 mM glucose + 10% dialyzed FBS, 0.0211 µM
[27] = RPMI 5 mM glucose + 10% dialyzed FBS, 0.0632 µM
[28] = RPMI 5 mM glucose + 10% dialyzed FBS, 0.19 µM
[29] = RPMI 5 mM glucose + 10% dialyzed FBS, 0.569 µM
[30] = RPMI 5 mM glucose + 10% dialyzed FBS, 1.71 µM
[31] = RPMI 5 mM glucose + 10% dialyzed FBS, 5.12 µM
[32] = RPMI 5 mM glucose + 10% dialyzed FBS, 15.4 µM
[33] = RPMI 5 mM glucose + 10% dialyzed FBS, 46.1 µM

Compound	cell viability [1]	cell viability [2]	cell viability [3]	cell viability [4]	cell viability [5]	cell viability [6]	cell viability [7]	cell viability [8]	cell viability [9]	cell viability [10]	cell viability [11]	cell viability [12]	cell viability [13]	cell viability [14]	cell viability [15]	cell viability [16]	cell viability [17]	cell viability [18]	cell viability [19]	cell viability [20]	cell viability [21]	cell viability [22]	cell viability [23]	cell viability [24]	cell viability [25]	cell viability [26]	cell viability [27]	cell viability [28]	cell viability [29]	cell viability [30]	cell viability [31]	cell viability [32]	cell viability [33]
Oc1cc2c(cc1O)C1c3ccc(O)c(O)c3OCC1(O)C2 (centres undefined)	83.5%	32.7%	89.1%	88.3%	100%	102%	93%	100%	99.7%	100%	90.6%	83.8%	36.7%	99.2%	102%	91.3%	105%	101%	88.8%	108%	101%	87.7%	92.7%	34.3%	102%	91.7%	86.4%	107%	92.9%	106%	104%	111%	89.5%
O=C(c1ccc(/C=C/c2n[nH]c3ccccc23)cc1)N1CCNCC1	82.7%	77.8%	83.4%	79%	60.7%	53.2%	48.1%	16.3%	20%	19.3%	19.8%	109%	120%	106%	85.3%	82.7%	56.2%	62.1%	10.9%	11.7%	12.3%	13.3%	75.8%	78.2%	73.1%	80.2%	66.3%	51.9%	38.2%	15.9%	15.9%	14.6%	13.3%
O=C(Nc1ccc([N+](=O)[O-])cc1Cl)c1cc(Cl)ccc1O	84.5%	98.7%	93.1%	98.2%	99.7%	97.6%	104%	43.3%	24.2%	64.1%	33.9%	75%	89.7%	96.8%	101%	101%	105%	117%	22.1%	19.7%	3.97%	32.3%	96.9%	85.7%	88.8%	103%	96.7%	99.2%	123%	19.6%	17.1%	66.3%	47%
CCCC(CCC)C(=O)[O-]	87%	88.8%	110%	97.5%	92.3%	91%	103%	112%	93.3%	100%	88.6%	104%	103%	121%	123%	115%	102%	125%	125%	115%	116%	135%	74.3%	105%	95.3%	124%	89.7%	96.8%	107%	118%	107%	98.1%	108%
CC(C)(C)Cn1c(N)nc2ccc(-c3[nH]c(C(C)(C)C)nc3-c3ccc(F)cc3)nc21	97.1%	94.9%	84.7%	87.8%	91.5%	82.2%	85.2%	79.1%	84.5%	77.6%	73.5%	123%	111%	108%	157%	146%	78.1%	54.1%	88.5%	91.9%	15.4%	59.3%	102%	98.5%	79.3%	90.9%	106%	87.9%	90%	87%	85.3%	13.4%	98.2%
CNC(=O)c1ccc(N2C(=S)N(c3ccc(C#N)c(C(F)(F)F)c3)C(=O)C2(C)C)cc1F	87.9%	96.9%	42.8%	113%	105%	113%	112%	109%	117%	121%	105%	71.3%	74%	9.73%	74.8%	73.9%	81.9%	86.3%	72.2%	90.1%	76.1%	64.1%	87.7%	99.6%	31.2%	116%	109%	111%	104%	110%	104%	110%	87.9%
CC1(C)Cc2c(sc(NC(=S)NC(=O)c3ccccc3)c2C(=O)O)CO1	74.1%	89.5%	91.9%	89.1%	96.7%	98.3%	97.6%	108%	101%	88.3%	101%	94%	109%	108%	93.1%	112%	112%	110%	113%	101%	105%	106%	65.2%	84%	85.4%	87.8%	96.6%	88.3%	95.4%	91.7%	89.6%	102%	88.5%
C[N+](C)(C)CC(=O)O.[Cl-]	56.8%	83.2%	80.5%	73.7%	79.7%	85.5%	88.3%	26.3%	93.1%	93.4%	89.1%	76.8%	80.8%	73%	77.4%	81.8%	89.2%	96%	16.6%	86.8%	90.2%	93.4%	81.5%	95%	90.9%	87.8%	81.7%	89%	100%	21%	91.8%	88.8%	74.2%
